In ChEMBL document CHEMBL3991601, “The target landscape of clinical kinase drugs” (Science, 2017):
pKd: −log10 of the molar value. Calls of active or inactive are those of the source. For most assays here, no stated cut-off is given here; in the data, actives have a measured Kd and inactives only a lower limit.

Columns and labels:
[1] = target: Citron Rho-interacting kinase (Homo sapiens, UniProt O14578)
[2] = target: Mitogen-activated protein kinase kinase kinase kinase 5 (Homo sapiens, UniProt Q9Y4K4)
[3] = target: Bone morphogenetic protein receptor type-1A (Homo sapiens, UniProt P36894)
Chain of Bone morphogenetic protein receptor type-1A (P36894 whole entry): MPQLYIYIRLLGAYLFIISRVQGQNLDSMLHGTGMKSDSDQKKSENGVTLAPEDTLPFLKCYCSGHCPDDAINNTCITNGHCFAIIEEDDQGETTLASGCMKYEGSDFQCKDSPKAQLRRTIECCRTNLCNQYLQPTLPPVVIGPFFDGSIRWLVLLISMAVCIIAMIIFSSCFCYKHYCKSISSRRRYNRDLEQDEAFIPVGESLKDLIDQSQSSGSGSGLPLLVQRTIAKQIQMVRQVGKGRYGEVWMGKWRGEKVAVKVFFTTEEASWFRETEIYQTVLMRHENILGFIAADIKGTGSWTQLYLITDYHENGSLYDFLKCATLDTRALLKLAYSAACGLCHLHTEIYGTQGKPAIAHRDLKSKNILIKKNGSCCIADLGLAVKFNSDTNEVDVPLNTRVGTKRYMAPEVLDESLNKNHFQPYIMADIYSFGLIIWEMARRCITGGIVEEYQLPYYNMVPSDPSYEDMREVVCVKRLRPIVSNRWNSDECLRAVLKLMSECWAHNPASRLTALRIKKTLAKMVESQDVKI

[4] = target: T1, Peroxisomal acyl-coenzyme A oxidase 3 (Homo sapiens, UniProt O15254)
T1 sequence (O15254 whole entry): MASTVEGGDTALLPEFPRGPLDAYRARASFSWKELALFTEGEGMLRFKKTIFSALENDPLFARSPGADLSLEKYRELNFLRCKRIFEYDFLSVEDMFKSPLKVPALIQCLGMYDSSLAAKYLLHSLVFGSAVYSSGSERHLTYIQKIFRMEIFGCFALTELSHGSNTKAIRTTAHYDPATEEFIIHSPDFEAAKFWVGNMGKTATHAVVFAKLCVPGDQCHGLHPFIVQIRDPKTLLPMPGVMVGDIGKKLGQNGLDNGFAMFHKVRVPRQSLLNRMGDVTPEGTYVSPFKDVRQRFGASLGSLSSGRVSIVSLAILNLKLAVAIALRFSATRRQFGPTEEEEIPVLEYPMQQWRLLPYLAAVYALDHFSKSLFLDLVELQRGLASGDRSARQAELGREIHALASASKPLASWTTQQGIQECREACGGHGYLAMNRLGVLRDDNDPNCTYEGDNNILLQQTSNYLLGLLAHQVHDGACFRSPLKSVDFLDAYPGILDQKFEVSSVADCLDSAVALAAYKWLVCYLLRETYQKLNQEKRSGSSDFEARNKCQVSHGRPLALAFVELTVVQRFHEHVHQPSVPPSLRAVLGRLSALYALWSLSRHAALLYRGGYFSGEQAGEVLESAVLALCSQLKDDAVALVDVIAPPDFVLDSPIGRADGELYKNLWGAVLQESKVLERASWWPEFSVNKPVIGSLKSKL

[5] = target: Midasin (Homo sapiens, UniProt Q9NU22)
[6] = target: Mitogen-activated protein kinase kinase kinase kinase 4 (Homo sapiens, UniProt O95819)
[7] = target: Epithelial discoidin domain-containing receptor 1 (Homo sapiens, UniProt Q08345)
[8] = target: T2, Serine/threonine-protein kinase ICK (Homo sapiens, UniProt Q9UPZ9)
T2 sequence (Q9UPZ9 whole entry): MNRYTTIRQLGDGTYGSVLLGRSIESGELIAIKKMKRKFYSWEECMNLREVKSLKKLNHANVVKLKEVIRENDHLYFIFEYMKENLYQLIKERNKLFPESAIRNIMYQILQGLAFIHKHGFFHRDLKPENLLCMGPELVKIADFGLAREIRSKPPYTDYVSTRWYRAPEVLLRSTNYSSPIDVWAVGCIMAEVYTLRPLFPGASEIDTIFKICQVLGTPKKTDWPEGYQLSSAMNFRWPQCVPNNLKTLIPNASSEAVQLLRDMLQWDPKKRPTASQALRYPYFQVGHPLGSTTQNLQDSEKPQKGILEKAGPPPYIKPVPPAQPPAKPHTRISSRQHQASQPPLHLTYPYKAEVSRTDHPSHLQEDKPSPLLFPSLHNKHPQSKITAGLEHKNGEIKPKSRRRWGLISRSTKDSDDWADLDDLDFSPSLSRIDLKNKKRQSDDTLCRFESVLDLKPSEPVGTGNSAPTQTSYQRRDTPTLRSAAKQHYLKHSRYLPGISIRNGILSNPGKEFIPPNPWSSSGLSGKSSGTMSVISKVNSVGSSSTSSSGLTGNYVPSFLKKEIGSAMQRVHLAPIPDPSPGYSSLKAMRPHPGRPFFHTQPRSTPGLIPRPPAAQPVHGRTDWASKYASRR

[9] = target: T3, Interleukin-1 receptor-associated kinase 4 (Homo sapiens, UniProt Q9NWZ3)
T3 sequence (Q9NWZ3 whole entry): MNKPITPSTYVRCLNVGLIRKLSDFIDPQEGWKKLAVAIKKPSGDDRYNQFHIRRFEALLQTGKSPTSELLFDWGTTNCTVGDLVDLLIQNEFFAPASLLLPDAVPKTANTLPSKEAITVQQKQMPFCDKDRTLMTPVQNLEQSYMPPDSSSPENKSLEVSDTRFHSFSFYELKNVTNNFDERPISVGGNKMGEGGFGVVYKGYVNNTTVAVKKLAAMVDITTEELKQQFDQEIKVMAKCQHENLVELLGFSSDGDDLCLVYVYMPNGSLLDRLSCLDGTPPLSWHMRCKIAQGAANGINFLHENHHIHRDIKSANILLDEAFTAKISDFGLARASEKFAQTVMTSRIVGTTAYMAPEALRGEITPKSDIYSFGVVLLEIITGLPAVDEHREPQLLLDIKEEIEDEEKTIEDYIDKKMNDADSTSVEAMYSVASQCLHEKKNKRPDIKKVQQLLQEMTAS

[10] = target: T4, cGMP-dependent protein kinase 1 (Homo sapiens, UniProt Q13976)
T4 sequence (Q13976 whole entry): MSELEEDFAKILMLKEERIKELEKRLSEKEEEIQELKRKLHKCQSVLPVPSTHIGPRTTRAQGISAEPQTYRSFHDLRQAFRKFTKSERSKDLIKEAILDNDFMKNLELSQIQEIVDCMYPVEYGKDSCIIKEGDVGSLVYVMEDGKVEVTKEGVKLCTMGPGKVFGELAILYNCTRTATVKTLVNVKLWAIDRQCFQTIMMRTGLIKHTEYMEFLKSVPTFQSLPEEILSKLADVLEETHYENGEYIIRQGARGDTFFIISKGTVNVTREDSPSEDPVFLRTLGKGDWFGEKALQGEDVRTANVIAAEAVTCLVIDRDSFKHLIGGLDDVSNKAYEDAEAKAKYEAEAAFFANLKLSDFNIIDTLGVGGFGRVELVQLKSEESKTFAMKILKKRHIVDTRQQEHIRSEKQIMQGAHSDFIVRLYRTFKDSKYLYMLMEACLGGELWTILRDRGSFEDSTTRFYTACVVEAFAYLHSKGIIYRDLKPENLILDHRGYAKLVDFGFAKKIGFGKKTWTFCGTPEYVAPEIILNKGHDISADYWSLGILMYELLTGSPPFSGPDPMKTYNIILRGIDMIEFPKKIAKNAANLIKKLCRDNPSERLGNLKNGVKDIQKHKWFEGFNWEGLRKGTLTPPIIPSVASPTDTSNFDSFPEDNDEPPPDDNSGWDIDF

[11] = target: Serine/threonine-protein kinase SIK3 (Homo sapiens, UniProt Q9Y2K2)
Chain of Serine/threonine-protein kinase SIK3 (Q9Y2K2 whole entry): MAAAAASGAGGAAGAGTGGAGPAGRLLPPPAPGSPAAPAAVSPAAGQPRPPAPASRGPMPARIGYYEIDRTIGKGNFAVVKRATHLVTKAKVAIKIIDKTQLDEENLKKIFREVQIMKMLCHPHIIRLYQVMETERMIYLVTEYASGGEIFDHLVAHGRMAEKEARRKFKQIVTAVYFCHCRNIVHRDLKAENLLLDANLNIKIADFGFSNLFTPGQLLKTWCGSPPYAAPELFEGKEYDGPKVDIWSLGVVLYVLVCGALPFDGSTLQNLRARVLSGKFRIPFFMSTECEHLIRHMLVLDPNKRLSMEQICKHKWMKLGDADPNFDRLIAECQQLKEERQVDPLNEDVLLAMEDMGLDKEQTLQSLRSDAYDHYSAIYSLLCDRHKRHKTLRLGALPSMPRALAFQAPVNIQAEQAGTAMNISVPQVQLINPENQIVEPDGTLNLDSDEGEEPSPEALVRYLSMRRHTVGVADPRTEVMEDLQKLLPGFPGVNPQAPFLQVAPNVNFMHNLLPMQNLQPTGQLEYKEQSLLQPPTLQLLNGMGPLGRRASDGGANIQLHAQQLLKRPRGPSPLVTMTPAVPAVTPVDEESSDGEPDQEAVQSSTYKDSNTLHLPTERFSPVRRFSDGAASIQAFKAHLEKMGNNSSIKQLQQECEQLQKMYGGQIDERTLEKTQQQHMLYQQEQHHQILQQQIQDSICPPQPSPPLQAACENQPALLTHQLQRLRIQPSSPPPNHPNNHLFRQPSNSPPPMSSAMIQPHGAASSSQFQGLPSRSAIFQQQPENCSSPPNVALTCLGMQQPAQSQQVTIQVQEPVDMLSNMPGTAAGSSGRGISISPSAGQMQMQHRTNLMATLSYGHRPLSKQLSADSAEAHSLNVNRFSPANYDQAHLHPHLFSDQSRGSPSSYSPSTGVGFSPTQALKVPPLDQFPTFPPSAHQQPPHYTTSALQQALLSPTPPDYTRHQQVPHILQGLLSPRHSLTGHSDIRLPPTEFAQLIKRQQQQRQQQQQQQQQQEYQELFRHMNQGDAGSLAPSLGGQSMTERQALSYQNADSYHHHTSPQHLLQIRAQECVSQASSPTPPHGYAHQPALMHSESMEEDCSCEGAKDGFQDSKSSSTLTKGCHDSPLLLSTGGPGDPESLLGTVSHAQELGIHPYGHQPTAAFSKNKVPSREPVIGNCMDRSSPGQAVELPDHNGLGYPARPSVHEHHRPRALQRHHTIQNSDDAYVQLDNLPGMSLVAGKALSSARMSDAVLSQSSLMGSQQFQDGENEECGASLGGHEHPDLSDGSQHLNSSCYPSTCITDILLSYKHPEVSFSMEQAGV

[12] = target: Cyclin-dependent kinase 7 (Homo sapiens, UniProt P50613)
Chain of Cyclin-dependent kinase 7 (P50613 whole entry): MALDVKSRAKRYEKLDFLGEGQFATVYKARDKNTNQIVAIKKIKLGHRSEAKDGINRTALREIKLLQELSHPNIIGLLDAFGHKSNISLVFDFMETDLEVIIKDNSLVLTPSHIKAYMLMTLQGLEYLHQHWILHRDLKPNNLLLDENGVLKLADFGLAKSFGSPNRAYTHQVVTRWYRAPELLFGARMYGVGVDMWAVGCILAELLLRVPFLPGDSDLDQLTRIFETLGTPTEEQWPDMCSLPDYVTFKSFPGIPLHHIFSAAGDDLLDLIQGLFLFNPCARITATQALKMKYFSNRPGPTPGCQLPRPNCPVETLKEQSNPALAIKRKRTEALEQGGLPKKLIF

[13] = target: 26S proteasome regulatory subunit 6B (Homo sapiens, UniProt P43686)
Chain of 26S proteasome regulatory subunit 6B (P43686 whole entry): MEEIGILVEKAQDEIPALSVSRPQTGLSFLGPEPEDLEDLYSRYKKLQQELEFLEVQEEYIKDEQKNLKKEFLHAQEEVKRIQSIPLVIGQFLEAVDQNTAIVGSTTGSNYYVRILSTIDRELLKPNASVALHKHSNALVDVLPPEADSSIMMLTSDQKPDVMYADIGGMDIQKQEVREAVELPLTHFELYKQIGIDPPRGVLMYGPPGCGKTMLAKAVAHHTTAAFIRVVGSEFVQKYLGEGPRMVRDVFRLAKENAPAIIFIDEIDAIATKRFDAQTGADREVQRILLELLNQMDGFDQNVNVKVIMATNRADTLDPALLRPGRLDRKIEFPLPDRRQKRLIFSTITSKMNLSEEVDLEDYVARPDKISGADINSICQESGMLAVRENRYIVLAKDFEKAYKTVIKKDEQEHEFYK

Chain of Citron Rho-interacting kinase (O14578 whole entry): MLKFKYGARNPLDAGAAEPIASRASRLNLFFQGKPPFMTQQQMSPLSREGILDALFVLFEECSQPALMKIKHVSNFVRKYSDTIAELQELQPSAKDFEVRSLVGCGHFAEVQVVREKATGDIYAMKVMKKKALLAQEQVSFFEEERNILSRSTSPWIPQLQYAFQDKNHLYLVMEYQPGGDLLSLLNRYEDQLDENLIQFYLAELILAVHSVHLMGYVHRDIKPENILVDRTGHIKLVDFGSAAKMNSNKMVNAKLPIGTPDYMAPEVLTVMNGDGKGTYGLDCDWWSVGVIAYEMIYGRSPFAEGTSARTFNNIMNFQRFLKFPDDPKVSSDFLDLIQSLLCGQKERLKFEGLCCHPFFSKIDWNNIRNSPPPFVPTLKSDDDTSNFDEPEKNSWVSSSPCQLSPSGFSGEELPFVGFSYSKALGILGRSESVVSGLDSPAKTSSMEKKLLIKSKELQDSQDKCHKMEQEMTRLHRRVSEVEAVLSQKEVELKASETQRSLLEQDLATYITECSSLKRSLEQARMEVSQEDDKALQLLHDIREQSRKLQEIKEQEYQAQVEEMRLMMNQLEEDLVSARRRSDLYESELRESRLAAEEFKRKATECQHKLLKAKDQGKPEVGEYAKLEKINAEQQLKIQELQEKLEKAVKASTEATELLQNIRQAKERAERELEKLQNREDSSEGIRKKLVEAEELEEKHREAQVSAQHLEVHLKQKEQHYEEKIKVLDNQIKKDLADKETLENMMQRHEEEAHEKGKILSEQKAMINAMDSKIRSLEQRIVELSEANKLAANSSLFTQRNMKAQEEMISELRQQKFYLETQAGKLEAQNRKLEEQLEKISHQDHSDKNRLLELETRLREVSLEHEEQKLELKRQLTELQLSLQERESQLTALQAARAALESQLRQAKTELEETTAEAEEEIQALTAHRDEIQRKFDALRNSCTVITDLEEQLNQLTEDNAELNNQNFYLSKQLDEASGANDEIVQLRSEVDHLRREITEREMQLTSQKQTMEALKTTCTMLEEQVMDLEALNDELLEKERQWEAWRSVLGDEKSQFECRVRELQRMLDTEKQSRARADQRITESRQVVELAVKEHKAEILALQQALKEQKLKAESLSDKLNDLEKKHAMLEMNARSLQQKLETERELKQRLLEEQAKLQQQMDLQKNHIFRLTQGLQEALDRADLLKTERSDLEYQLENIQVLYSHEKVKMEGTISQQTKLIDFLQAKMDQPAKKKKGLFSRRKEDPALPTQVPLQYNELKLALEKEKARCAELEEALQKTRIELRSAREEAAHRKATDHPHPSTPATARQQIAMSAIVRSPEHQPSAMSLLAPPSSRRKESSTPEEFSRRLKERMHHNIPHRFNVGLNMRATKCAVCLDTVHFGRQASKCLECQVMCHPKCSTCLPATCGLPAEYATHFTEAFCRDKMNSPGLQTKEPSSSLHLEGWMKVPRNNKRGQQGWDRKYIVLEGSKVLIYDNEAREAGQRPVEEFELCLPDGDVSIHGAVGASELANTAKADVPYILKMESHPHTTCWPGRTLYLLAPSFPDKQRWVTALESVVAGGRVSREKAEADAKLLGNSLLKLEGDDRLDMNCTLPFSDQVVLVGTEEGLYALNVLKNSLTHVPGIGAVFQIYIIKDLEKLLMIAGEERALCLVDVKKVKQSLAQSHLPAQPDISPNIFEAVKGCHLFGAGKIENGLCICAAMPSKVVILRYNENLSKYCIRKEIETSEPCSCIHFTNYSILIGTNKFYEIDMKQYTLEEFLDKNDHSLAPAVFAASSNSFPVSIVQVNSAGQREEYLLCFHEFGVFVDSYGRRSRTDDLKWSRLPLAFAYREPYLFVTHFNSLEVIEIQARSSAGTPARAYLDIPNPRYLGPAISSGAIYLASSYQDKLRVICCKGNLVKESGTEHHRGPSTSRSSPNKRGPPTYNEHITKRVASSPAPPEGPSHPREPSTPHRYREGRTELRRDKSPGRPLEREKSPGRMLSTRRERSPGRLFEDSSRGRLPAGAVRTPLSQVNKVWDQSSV

Kd [1]	Kd [2]	Kd [3]	Kd [4]	Kd [5]	Kd [6]	Kd [7]	Kd [8]	Kd [9]	Kd [10]	Kd [12]	Kd [13]	Kd [11]	pKd [7]	SMILES	pKd [11]
> 30 µM (inactive)	> 30 µM (inactive)	> 30 µM (inactive)	> 30 µM (inactive)	> 30 µM (inactive)	> 30 µM (inactive)	> 30 µM (inactive)	> 30 µM (inactive)	34.1 µM (active)	> 30 µM (inactive)	> 30 µM (inactive)	> 30 µM (inactive)	> 30 µM (inactive)	–	COc1cc2ncnc(Nc3ccc(O)cc3)c2cc1OC [WHI-P131]	–
> 30 µM (inactive)	> 30 µM (inactive)	> 30 µM (inactive)	> 30 µM (inactive)	> 30 µM (inactive)	> 30 µM (inactive)	> 30 µM (inactive)	> 30 µM (inactive)	> 30 µM (inactive)	> 30 µM (inactive)	> 30 µM (inactive)	> 30 µM (inactive)	2.98 µM (active)	–	O[C@H]1CC[C@H](Nc2ncc3nc(Nc4c(F)cc(F)cc4F)n([C@H]4CCOC4)c3n2)CC1 [TANZISERTIB]	–
> 30 µM (inactive)	> 30 µM (inactive)	> 30 µM (inactive)	> 30 µM (inactive)	> 30 µM (inactive)	> 30 µM (inactive)	0.174 µM (active)	> 30 µM (inactive)	> 30 µM (inactive)	> 30 µM (inactive)	> 30 µM (inactive)	> 30 µM (inactive)	> 30 µM (inactive)	–	Cc1ccc(C(=O)Nc2ccc(Oc3cc4cnn(C)c4cc3-c3cn[nH]c3)c(F)c2)c(=O)n1-c1ccc(F)cc1 [MERESTINIB]	–
> 30 µM (inactive)	> 30 µM (inactive)	> 30 µM (inactive)	> 30 µM (inactive)	> 30 µM (inactive)	> 30 µM (inactive)	–	> 30 µM (inactive)	> 30 µM (inactive)	> 30 µM (inactive)	> 30 µM (inactive)	> 30 µM (inactive)	> 30 µM (inactive)	5.76	Cc1cc(-c2cc(OC(=O)c3ccccc3)ccc2Cl)cc2nnc(Nc3ccc(OCCN4CCCC4)cc3)nc12 [TG100-801]	–
> 30 µM (inactive)	> 30 µM (inactive)	> 30 µM (inactive)	> 30 µM (inactive)	> 30 µM (inactive)	> 30 µM (inactive)	> 30 µM (inactive)	> 30 µM (inactive)	> 30 µM (inactive)	> 30 µM (inactive)	> 30 µM (inactive)	> 30 µM (inactive)	> 30 µM (inactive)	–	COc1cccc2cc(-c3nc([C@H]4CC[C@H](C(=O)O)CC4)n4ncnc(N)c34)[nH]c12 [OSI-027]	–
> 30 µM (inactive)	> 30 µM (inactive)	> 30 µM (inactive)	> 30 µM (inactive)	> 30 µM (inactive)	> 30 µM (inactive)	14.7 µM (active)	> 30 µM (inactive)	> 30 µM (inactive)	> 30 µM (inactive)	> 30 µM (inactive)	> 30 µM (inactive)	> 30 µM (inactive)	–	Cc1cc(C(=O)Nc2cc(Oc3ccc4nc(NC(=O)C5CC5)cn4n3)ccc2C)n(C)n1 [TAK-593]	–
> 30 µM (inactive)	> 30 µM (inactive)	> 30 µM (inactive)	> 30 µM (inactive)	> 30 µM (inactive)	> 30 µM (inactive)	> 30 µM (inactive)	> 30 µM (inactive)	> 30 µM (inactive)	> 30 µM (inactive)	> 30 µM (inactive)	> 30 µM (inactive)	> 30 µM (inactive)	–	NC(=O)c1ccc(N(C(N)=O)c2c(F)cccc2F)nc1-c1ccc(F)cc1F [VX-702]	–
> 30 µM (inactive)	> 30 µM (inactive)	> 30 µM (inactive)	> 30 µM (inactive)	> 30 µM (inactive)	4.17 µM (active)	> 30 µM (inactive)	> 30 µM (inactive)	> 30 µM (inactive)	> 30 µM (inactive)	> 30 µM (inactive)	> 30 µM (inactive)	> 30 µM (inactive)	–	c1cc(OCCN2CCCCC2)cc(-c2n[nH]c3ccc(-c4nc[nH]n4)cc23)c1 [CC-401]	–

SMILES	Kd [1]	Kd [2]	Kd [3]	Kd [4]	Kd [5]	Kd [6]	Kd [7]	Kd [8]	Kd [9]	Kd [10]	Kd [12]	Kd [13]	Kd [11]	pKd [7]	pKd [11]
C=CCN(/C=C1/C(=O)O[C@H](COC)[C@@]2(C)C1=C(O)C(=O)C1=C2[C@H](OC(C)=O)C[C@]2(C)C(=O)CC[C@@H]12)CC=C [SONOLISIB]	> 30 µM (inactive)	> 30 µM (inactive)	> 30 µM (inactive)	> 30 µM (inactive)	> 30 µM (inactive)	> 30 µM (inactive)	> 30 µM (inactive)	> 30 µM (inactive)	> 30 µM (inactive)	> 30 µM (inactive)	> 30 µM (inactive)	> 30 µM (inactive)	–	–	7.96
Cn1cc(-c2[nH]c3cc(NC(=O)[C@H](N)C4CCCCC4)cc4c3c2C=NNC4=O)cn1	0.725 µM (active)	2.64 µM (active)	0.814 µM (active)	> 30 µM (inactive)	> 30 µM (inactive)	> 30 µM (inactive)	> 30 µM (inactive)	> 30 µM (inactive)	2.61 µM (active)	> 30 µM (inactive)	> 30 µM (inactive)	> 30 µM (inactive)	0.386 µM (active)	–	–
C=CC(=O)Nc1cc(Nc2nccc(-c3cn(C)c4ccccc34)n2)c(OC)cc1N(C)CCN(C)C [OSIMERTINIB]	> 30 µM (inactive)	> 30 µM (inactive)	> 30 µM (inactive)	> 30 µM (inactive)	> 30 µM (inactive)	> 30 µM (inactive)	> 30 µM (inactive)	> 30 µM (inactive)	> 30 µM (inactive)	> 30 µM (inactive)	> 30 µM (inactive)	> 30 µM (inactive)	> 30 µM (inactive)	–	–
